# Data from US12636370B2, “Combination therapy for treatment of cancer” (Institute For Cancer Research, priority 2019, dated 2026).
# What was measured:
# Format in all cases: cell-based
# [1] = tested on: BET proteins (BRD2, BRD3, BRD4); experiment: Western blot of BET protein levels, OVCAR8 parental cells
# OVCAR8 cells [2] = experiment: Single-run proteome analysis and RNA-seq, OVCAR8 cells; settings: 48 hours, single-run proteome analysis
# Protocol: Enrichment maps of pathways repressed by short-term BBD generated from single-run proteome profiles of OVCAR8 cells treated with BBDs (MZ1 or ARV825) for 48 hours were prepared (data not shown). Statistical differences in protein log 2 LFQ z-scores comparing BBDs or BBIs to control treated cells was determined by paired T-Test Benjamini-Hochberg adjusted p values at FDR of <0.05 using Perseus Software. […] Enrichment maps were generated in Cytoscape using the Enrichment Map app v2.2.1. […] Statistical differences in protein log 2 LFQ z-scores comparing BBDs or BBIs to control treated cells was determined.
# OVCAR8 MZ1-R cells [3] = experiment: CellTiter-Glo cell viability, OVCAR8 MZ1-R cells; settings: escalating doses, 5 days; for cell viability of MZ1-R cells compared with parental cells: OVCAR8 MZ1-R; for sensitivity of MZ1-R cells relative to JQ1-R cells or parental cells: OVCAR8, inhibitor screen
# OVCAR8 ARV-R cells [4] = experiment: CellTiter-Glo cell viability, OVCAR8 ARV-R cells; settings: escalating doses, 5 days
# OVCAR8 JQ1-R cells [5] = experiment: CellTiter-Glo cell viability, OVCAR8 JQ1-R cells; settings: escalating doses, 5 days
# [6] = tested on: BET proteins (BRD2, BRD3, BRD4); experiment: Western blot of BET proteins and BRD4 targets, OVCAR8 MZ1-R cells; settings: Western blot
# [7] = tested on: BET proteins (BRD2, BRD3, BRD4); experiment: Western blot of BET proteins, OVCAR8 ARV-R cells
# BET proteins, FOSL1, MYC = experiment: Western blot of BET proteins and BRD4 targets, JQ1-R cells
# OVCAR8 MZ1-R cells [8] = experiment: Apoptosis by Western blot, OVCAR8 MZ1-R cells
# OVCAR8 JQ1-R cells [9] = experiment: Apoptosis by cleaved PARP Western blot, OVCAR8 JQ1-R cells
# OVCAR8 ARV-R cells [10] = experiment: Apoptosis by cleaved PARP Western blot, OVCAR8 ARV-R cells
# OVCAR8 cells [11] = experiment: CellTiter-Glo cell viability, OVCAR8 parental cells; settings: dose escalation, 5 days
# [12] = tested on: translation markers, RNA pol II, MYC; experiment: Western blot of translation, BRD4-targets and MYC signaling, OVCAR8 cells; settings: 500 nM, 48 hours
# [13] = tested on: INSR and downstream MTOR, AKT and MAPK signaling; experiment: Kinase signaling in BBD-R cells (MIB-MS, phospho-blot); settings: for phosphorylation of P70S6K (T359): BBD-R cells (MZ1-R, ARV-R), 1 μM, 4 hours
# Protocol: Reduced MIB-binding of kinases involved in cell cycle (WEE1, CHEK1, CDK2, CDK6 and PLK1), as well as kinases required for translation (EIF2AK1, EIF2AK2, and EIF2AK4) were also observed following GSK529A treatment. […] Enrichment maps of pathways repressed by INSR inhibition generated from MIB-MS profiles of OVCAR8 cells treated with GSK529A (1 μM) treatment for 48 hours. Statistical differences in protein log 2 LFQ z-scores comparing GSK529A to control treated MZ1-R cells was determined by paired T-Test Benjamini- Hochberg adjusted p values at FDR of <0.05 using Perseus Software. […] Enrichment maps were generated in Cytoscape using the Enrichment Map app v2.2.1. (data not shown).
# BRD2, BRD3 or BRD4 RNA = experiment: qRT-PCR of BRD RNA levels, OVCAR8 MZ1-R cells; settings: 1 μM, 48 hours
# [14] = tested on: KURAMOCHI, COV362 and OVCAR5 MZ1-R cells; experiment: CellTiter-Glo cell viability, KURAMOCHI, COV362 and OVCAR5 MZ1-R cells; settings: COV362 and OVCAR5, escalating doses, 5 days
# [15] = tested on: BET proteins (BRD2, BRD4); experiment: Western blot of BET proteins, KURAMOCHI, COV362 and OVCAR5 MZ1-R cells
# OVCAR5 JQ1-R cells = experiment: Growth curves, OVCAR5 JQ1-R cells
compound,measurement,setting,value
Cc1sc2c(c1C)C(c1ccc(Cl)cc1)=N[C@@H](CC(=O)Nc1ccc(OCCOCCOCCOCCNc3cccc4c3C(=O)N(C3CCC(=O)NC3=O)C4=O)cc1)c1nnc(C)n1-2 (stereo partly shown) [ARV825],BET protein levels,[1],degraded BET proteins in a concentration-dependent manner
same,global protein level changes,OVCAR8 cells [2],uniquely downregulated proteins involved in ribosome and translation signaling
same,cell viability of MZ1-R cells compared with parental cells,OVCAR8 MZ1-R cells [3],inhibited cell viability
same,cell viability of ARV-R cells compared with parental cells,OVCAR8 ARV-R cells [4],rightward shift
same,cell viability of JQ1-R cells,OVCAR8 JQ1-R cells [5],inhibited cell viability
same,BET protein levels,[6],reduced BET proteins
same,BET protein levels,[7],"insufficient to degrade BRD2, BRD3 or BRD4"
same,BET protein levels,"BET proteins, FOSL1, MYC",degraded BET proteins
same,"BRD4 target (FOSL1, MYC) protein levels","BET proteins, FOSL1, MYC",reduced MYC/FOSL1 protein levels
same,apoptosis,OVCAR8 MZ1-R cells [8],promoted apoptosis
same,apoptosis,OVCAR8 JQ1-R cells [9],induced apoptosis
Cc1ncsc1-c1ccc([C@H](C)NC(=O)[C@@H]2C[C@@H](O)CN2C(=O)[C@@H](NC(=O)COCCCOCCNC(=O)C[C@@H]2N=C(c3ccc(Cl)cc3)c3c(sc(C)c3C)-n3c(C)nnc32)C(C)(C)C)cc1 [ARV-771],cell viability of MZ1-R cells compared with parental cells,OVCAR8 MZ1-R cells [3],cross-resistant
same,cell viability of ARV-R cells compared with parental cells,OVCAR8 ARV-R cells [4],"failed to reduce BET proteins, block growth or induce apoptosis"
same,BET protein levels,[7],"failed to reduce BET proteins, block growth or induce apoptosis"
same,apoptosis,OVCAR8 ARV-R cells [10],"failed to reduce BET proteins, block growth or induce apoptosis"
O=C(O)c1ccc2c(c1)nc(Nc1cccc(Cl)c1)c1ccncc12 [Cx-4945],cell viability of MZ1-R cells compared with parental cells,OVCAR8 MZ1-R cells [3],more sensitive
same,cell viability of JQ1-R cells,OVCAR8 JQ1-R cells [5],more sensitive
CS(=O)(=O)N1CCN(Cc2cc3nc(-c4cccc5[nH]ncc45)nc(N4CCOCC4)c3s2)CC1 [GDC-0941],cell viability of MZ1-R cells compared with parental cells,OVCAR8 MZ1-R cells [3],more sensitive
same,cell viability of JQ1-R cells,OVCAR8 JQ1-R cells [5],more sensitive
Cc1sc2c(c1C)C(c1ccc(Cl)cc1)=N[C@@H](CC(=O)OC(C)(C)C)c1nnc(C)n1-2 [JQ1],GI50,OVCAR8 cells [11],0.133 µM
same,RNA pol II (S2) phosphorylation,[12],not observed with JQ1
same,cell viability of MZ1-R cells compared with parental cells,OVCAR8 MZ1-R cells [3],reduced cell viability to a greater extent than parental cells
same,cell viability of ARV-R cells compared with parental cells,OVCAR8 ARV-R cells [4],reduced cell viability to a greater extent than parental cells
same,cell viability of JQ1-R cells,OVCAR8 JQ1-R cells [5],unaffected by increasing doses of JQ1
same,"BRD4 target (FOSL1, MYC) protein levels","BET proteins, FOSL1, MYC",failed to reduce BRD4 target FOSL1
COc1ncccc1-c1cnn2ccc(N3CCN(C(=O)OC(C)C)CC3)nc12 [LP-935509],sensitivity of MZ1-R cells relative to JQ1-R cells or parental cells,OVCAR8 MZ1-R cells [3],more sensitive
same,cell viability of ARV-R cells compared with parental cells,OVCAR8 ARV-R cells [4],reduced cell viability more than in parental cells
CNc1ncc2cc(-c3cc(NC(=O)NCCC(C)(C)C)c(F)cc3C)c(C)nc2n1 [LY3009120],cell viability of JQ1-R cells,OVCAR8 JQ1-R cells [5],most profound impact on JQ1-R cell viability
NC1(c2ccc(-c3nc4ccn5c(=O)[nH]nc5c4cc3-c3ccccc3)cc2)CCC1 [MK-2206],sensitivity of MZ1-R cells relative to JQ1-R cells or parental cells,OVCAR8 MZ1-R cells [3],more sensitive
same,cell viability of ARV-R cells compared with parental cells,OVCAR8 ARV-R cells [4],reduced cell viability more than in parental cells
COC[C@@H](C)NC1CCC(Nc2cc(-c3cccc(NCC4(C#N)CCOCC4)n3)c(Cl)cn2)CC1 (stereo partly shown) [NVP-2],cell viability of MZ1-R cells compared with parental cells,OVCAR8 MZ1-R cells [3],more sensitive
same,cell viability of JQ1-R cells,OVCAR8 JQ1-R cells [5],more sensitive
CNC(=O)c1ccccc1Nc1cc(Nc2ccc(N3CCOCC3)cc2OC)ncc1C(F)(F)F [PND-1186],sensitivity of MZ1-R cells relative to JQ1-R cells or parental cells,OVCAR8 MZ1-R cells [3],more sensitive
CCC(=O)N1CCN(c2ccc(-n3c(=O)ccc4cnc5ccc(-c6cnc7ccccc7c6)cc5c43)cc2C(F)(F)F)CC1 [Torin-1],BET protein levels,[6],reduced BRD2 and BRD4 levels
same,BET protein levels,[7],reduced BRD2 and BRD4 levels
same,phosphorylation of P70S6K (T359),[13],reduced MTOR-mediated phosphorylation of P70S6K (T359)
CC(C)C[C@H](NC(=O)[C@H](Cc1ccccc1)NC(=O)c1cnccn1)B(O)O [bortezomib],phosphorylated RNA pol II (S2),"[13]; OVCAR8 MZ1-R cells, 48 hour RAD001 treatment, with or without bortezomib",could be reversed by bortezomib treatment
CCN(CCO)CCCC(C)Nc1ccnc2cc(Cl)ccc12 (stereo not shown) [hydroxychloroquine],cell viability of MZ1-R cells compared with parental cells,OVCAR8 MZ1-R cells [3],more sensitive
same,cell viability of JQ1-R cells,OVCAR8 JQ1-R cells [5],more sensitive
CS(=O)(=O)CCNCc1ccc(-c2ccc3ncnc(Nc4ccc(OCc5cccc(F)c5)c(Cl)c4)c3c2)o1 [lapatinib],cell viability of ARV-R cells compared with parental cells,OVCAR8 ARV-R cells [4],reduced cell viability more than in parental cells
same,BET protein levels,[6],reduced BRD2 and BRD4 levels
same,BET protein levels,[7],reduced BRD2 and BRD4 levels
same,phosphorylation of P70S6K (T359),[13],reduced MTOR-mediated phosphorylation of P70S6K (T359)
same,"BRD2, BRD3 or BRD4 RNA levels","BRD2, BRD3 or BRD4 RNA",unaffected
same,cell viability / growth of MZ1-R cells compared with parental cells,[14],significantly blocked cell growth to a greater extent than parental cells
same,BET protein levels,[15],reduced BRD2 and BRD4 proteins
same,growth inhibition,OVCAR5 JQ1-R cells,minimal growth inhibition
O=C(c1cc(Cc2n[nH]c(=O)c3ccccc23)ccc1F)N1CCN(C(=O)C2CC2)CC1 [olaparib],cell viability of MZ1-R cells compared with parental cells,OVCAR8 MZ1-R cells [3],more sensitive
same,cell viability of JQ1-R cells,OVCAR8 JQ1-R cells [5],more sensitive
